Test results reported in patent US20220386602A1, “METHODS OF USING A COMPOSITION COMPRISING AN ANIONIC PESTICIDE AND A BUFFER” (BASF CORPORATION, priority 2019, published 2022).
Where two headings read alike, the source gives them in different places.

System: dicamba sensitive soybean plants
Conditions: dicamba 2240 g ae/ha, AMS 917 g/ha and K2CO3 buffer 4000 g/ha where named, 0.25% v/v non-ionic surfactant (Preference), 8 glass petri plates
Source text: The method of a bioassay humidome study utilizes a treated substrate (e.g. glass, soil, potting mix or plants) placed in a plastic tray covered with a clear plastic humidome (overall size 25 cm wide×50 cm long×20 cm tall; source: Hummert) along with 2 dicamba sensitive soybean plants (1-2 true leaves). Individual humidomes representing different study treatments and replicates are placed in a greenhouse environment (with a typical diurnal temperature range of 25 to 40 C and 75 to 98 % RH).
After 18 to 24 hours, the sensitive soybean plants are removed from the humidomes and placed on a greenhouse bench for observation and visual response or injury assessment over a 2-3 weeks period. The level of injury to soybean plants is an indirect measurement of amount of dicamba exposure from treated substrate.

SMILES | % bioassay soybean response | % bioassay soybean response (listed as dicamba-BAPMA)
CN(CCCN)CCCN.COc1c(Cl)ccc(Cl)c1C(=O)O [Dicamba-BAPMA, dicamba N,N-bis(3-aminopropyl)methylamine salt] | 9% | lower soybean response than dicamba-DGA or dicamba-DMA
CNC.COc1c(Cl)ccc(Cl)c1C(=O)O [Dicamba-DMA, dicamba dimethylamine] | 45% | –
